Experimental data reported in PubChem BioAssay AID1919008 (Molecular Pharmacology Branch, DTP, NCI, 2023).
“And” between values parts separate entries of the source, which are not always exact repeats. Equal values may be shown once.

Tested on: DMS-114 complex spheroids with HUVEC/MSC, growth % test/control
Assay: Anticancer human tumor DMS-114 cell line growth inhibition [AhR];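 also: spheroids exposed to agents for 7 days before readout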;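 as to viability, T/C: 100% = DMSO vehicle control wells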
Conditions: for viability, T/C: stronger effect = lower value
Procedure, shortened: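 Agents were dosed in half-log steps down from roughly clinical Cmax, or from 10 microM where Cmax was unknown, alone and with AhR antagonists. Read-out: percent test/control growth of tumor spheroids containing HUVEC and MSC stromal cells.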

[1] = curve of first compound, second compound 0.1 µM
[2] = curve of first compound, second compound 0.316 µM
[3] = curve of first compound, second compound 1 µM
[4] = curve of first compound, second compound 3.16 µM
[5] = curve of first compound, second compound 10 µM
[6] = second compound 0.1 µM, first compound 0.0316 µM
[7] = second compound 0.1 µM, first compound 0.1 µM
[8] = second compound 0.1 µM, first compound 0.316 µM
[9] = second compound 0.1 µM, first compound 1 µM
[10] = second compound 0.316 µM, first compound 0.0316 µM
[11] = second compound 0.316 µM, first compound 0.1 µM
[12] = second compound 0.316 µM, first compound 0.316 µM
[13] = second compound 0.316 µM, first compound 1 µM
[14] = second compound 1 µM, first compound 0.0316 µM
[15] = second compound 1 µM, first compound 0.1 µM
[16] = second compound 1 µM, first compound 0.316 µM
[17] = second compound 1 µM, first compound 1 µM
[18] = second compound 3.16 µM, first compound 0.0316 µM
[19] = second compound 3.16 µM, first compound 0.1 µM
[20] = second compound 3.16 µM, first compound 0.316 µM
[21] = second compound 3.16 µM, first compound 1 µM
[22] = second compound 10 µM, first compound 0.0316 µM
[23] = second compound 10 µM, first compound 0.1 µM
[24] = second compound 10 µM, first compound 0.316 µM
[25] = second compound 10 µM, first compound 1 µM
[26] = second compound 0.1 µM, first compound 3.16 µM
[27] = second compound 0.1 µM, first compound 10 µM
[28] = second compound 0.316 µM, first compound 3.16 µM
[29] = second compound 0.316 µM, first compound 10 µM
[30] = second compound 1 µM, first compound 3.16 µM
[31] = second compound 1 µM, first compound 10 µM
[32] = second compound 3.16 µM, first compound 3.16 µM
[33] = second compound 3.16 µM, first compound 10 µM
[34] = second compound 10 µM, first compound 3.16 µM
[35] = second compound 10 µM, first compound 10 µM

Work on `CCc1c2c(nc3ccc(O)cc13)-c1cc3c(c(=O)n1C2)COC(=O)[C@]3(O)CC` + Cc1ccccc1N=Nc1ccc(NC(=O)c2ccnn2C)c(C)c1 yielded an IC50 [1] of 9.05 nM, an IC50 [2] of 8.31 nM and an IC50 [3] of 9.91 nM. For the same compound, the IC50 [4] was 10.5 nM, the IC50 [5] was 13.4 nM and the viability, T/C (second compound 0.1 µM, first compound 0.000949 µM) was 98.3%. It also gave a viability, T/C (second compound 0.1 µM, first compound 0.003 µM) of 97.7%, a viability, T/C (second compound 0.1 µM, first compound 0.00949 µM) of 48% and a viability, T/C (second compound 0.1 µM, first compound 0.03 µM) of 35.2%. For the same compound, the viability, T/C (second compound 0.1 µM, first compound 0.0949 µM) was 38.4%, the viability, T/C (second compound 0.1 µM, first compound 0.3 µM) was 37.7% and the viability, T/C (second compound 0.316 µM, first compound 0.000949 µM) was 103%. It also gave a viability, T/C (second compound 0.316 µM, first compound 0.003 µM) of 80.9%, a viability, T/C (second compound 0.316 µM, first compound 0.00949 µM) of 47% and a viability, T/C (second compound 0.316 µM, first compound 0.03 µM) of 30.5%. It also gave a viability, T/C (second compound 0.316 µM, first compound 0.0949 µM) of 32.5%, a viability, T/C (second compound 0.316 µM, first compound 0.3 µM) of 32.3% and a viability, T/C (second compound 1 µM, first compound 0.000949 µM) of 94%. It also gave a viability, T/C (second compound 1 µM, first compound 0.003 µM) of 90.9%, a viability, T/C (second compound 1 µM, first compound 0.00949 µM) of 50.5% and a viability, T/C (second compound 1 µM, first compound 0.03 µM) of 36.4%. It also gave a viability, T/C (second compound 1 µM, first compound 0.0949 µM) of 36.3%, a viability, T/C (second compound 1 µM, first compound 0.3 µM) of 40.6% and a viability, T/C (second compound 3.16 µM, first compound 0.000949 µM) of 93.2%. The viability, T/C (second compound 3.16 µM, first compound 0.003 µM) was 79.1%, the viability, T/C (second compound 3.16 µM, first compound 0.00949 µM) was 52.5% and the viability, T/C (second compound 3.16 µM, first compound 0.03 µM) was 35.6%. It also gave a viability, T/C (second compound 3.16 µM, first compound 0.0949 µM) of 39.8%, a viability, T/C (second compound 3.16 µM, first compound 0.3 µM) of 41.4% and a viability, T/C (second compound 10 µM, first compound 0.000949 µM) of 83.1%. The viability, T/C (second compound 10 µM, first compound 0.003 µM) was 82.2%, the viability, T/C (second compound 10 µM, first compound 0.00949 µM) was 53.7% and the viability, T/C (second compound 10 µM, first compound 0.03 µM) was 40.4%. It also gave a viability, T/C (second compound 10 µM, first compound 0.0949 µM) of 40.5% and a viability, T/C (second compound 10 µM, first compound 0.3 µM) of 43.5%.

For `CC1COCCN1c1cc(-c2ccnn2C)c2ccnc(-c3ccn[nH]3)c2n1` (centres undefined) + Cc1ccccc1N=Nc1ccc(NC(=O)c2ccnn2C)c(C)c1, the IC50 [1] was 620 nM, the IC50 [2] was 500 nM and the IC50 [3] was 475 nM. For the same compound, the IC50 [4] was 495 nM, the IC50 [5] was 538 nM and the viability, T/C (second compound 0.1 µM, first compound 0.00316 µM) was 110%. For the same compound, the viability, T/C (second compound 0.1 µM, first compound 0.01 µM) was 96.3%, the viability, T/C [6] was 98.1% and the viability, T/C [7] was 85.8%. For the same compound, the viability, T/C [8] was 68.6%, the viability, T/C [9] was 37.2% and the viability, T/C (second compound 0.316 µM, first compound 0.00316 µM) was 94.3%. The viability, T/C (second compound 0.316 µM, first compound 0.01 µM) was 106%, the viability, T/C [10] was 95.2% and the viability, T/C [11] was 83.8%. It also gave a viability, T/C [12] of 58.7%, a viability, T/C [13] of 37.2% and a viability, T/C (second compound 1 µM, first compound 0.00316 µM) of 97.8%. It also gave a viability, T/C (second compound 1 µM, first compound 0.01 µM) of 98.2%, a viability, T/C [14] of 101% and a viability, T/C [15] of 84.8%. For the same compound, the viability, T/C [16] was 57.4%, the viability, T/C [17] was 37.3% and the viability, T/C (second compound 3.16 µM, first compound 0.00316 µM) was 99.7%. It also gave a viability, T/C (second compound 3.16 µM, first compound 0.01 µM) of 101%, a viability, T/C [18] of 92.1% and a viability, T/C [19] of 81.5%. The viability, T/C [20] was 58%, the viability, T/C [21] was 37% and the viability, T/C (second compound 10 µM, first compound 0.00316 µM) was 89.9%. It also gave a viability, T/C (second compound 10 µM, first compound 0.01 µM) of 89.2%, a viability, T/C [22] of 89.1% and a viability, T/C [23] of 66.2%. The viability, T/C [24] was 60.5% and the viability, T/C [25] was 41%.

In the case of `CC[C@@]1(O)C(=O)OCc2c1cc1n(c2=O)Cc2cc3c(CN(C)C)c(O)ccc3nc2-1`, the viability, T/C (compound 0.000316 µM) is reported as 101% (2×) and 99%, the viability, T/C (compound 0.001 µM) is reported as 96.5% and 104% and 98.2% and the viability, T/C (compound 0.00316 µM) is reported as 93.2% and 85.7% and 107%. The viability, T/C (compound 0.01 µM) was 79.9% and 87.8% and 95.2%, the viability, T/C (compound 0.0316 µM) was 39.3% and 44.6% and 60.9% and the viability, T/C (compound 0.1 µM) was 19% and 22.2% and 43.2%. For the same compound, the IC50 (curve of compound) was 23.4 nM and 27.8 nM and 64.4 nM.

For `COc1ccc([C@@H](O)c2cc(-c3ncnc4cc(N5CCOCC5)ccc34)c(F)cc2Cl)nn1`, the viability, T/C (compound 0.0316 µM) was 104% and 102% and 101%, the viability, T/C (compound 0.1 µM) was 107% and 101% and 103% and the viability, T/C (compound 0.316 µM) was 96.9% and 107% and 112%. For the same compound, the viability, T/C (compound 1 µM) was 97.4% and 114% and 94.8%, the viability, T/C (compound 3.16 µM) was 102% and 110% and 95.2% and the viability, T/C (compound 10 µM) was 56% and 96.2% and 56.6%. It also gave an IC50 (curve of compound) of over 10000 nM.

`CC(C)c1c(-c2ccccc2)nc2c(C#N)c[nH]n2c1=O` + Cc1cncc(-c2nc(NCCc3c[nH]c4ccccc34)c3ncn(C(C)C)c3n2)c1 gave an IC50 [1] of over 10000 nM, an IC50 [2] of over 10000 nM and an IC50 [3] of over 10000 nM. The IC50 [4] was over 10000 nM, the IC50 [5] was under 31.6 nM and the viability, T/C [6] was 111%. The viability, T/C [7] was 100%, the viability, T/C [8] was 103% and the viability, T/C [9] was 108%. It also gave a viability, T/C [26] of 97.4%, a viability, T/C [27] of 97.4% and a viability, T/C [10] of 107%. It also gave a viability, T/C [11] of 97.9%, a viability, T/C [12] of 103% and a viability, T/C [13] of 92.6%. It also gave a viability, T/C [28] of 111%, a viability, T/C [29] of 95.3% and a viability, T/C [14] of 107%. The viability, T/C [15] was 107%, the viability, T/C [16] was 102% and the viability, T/C [17] was 112%. The viability, T/C [30] was 101%, the viability, T/C [31] was 108% and the viability, T/C [18] was 92.9%. It also gave a viability, T/C [19] of 80.6%, a viability, T/C [20] of 83.3% and a viability, T/C [21] of 88.8%. For the same compound, the viability, T/C [32] was 86.4%, the viability, T/C [33] was 92.6% and the viability, T/C [22] was 30.4%. The viability, T/C [23] was 40.1%, the viability, T/C [24] was 33.3% and the viability, T/C [25] was 40%. It also gave a viability, T/C [34] of 32.5% and a viability, T/C [35] of 46.4%.

With `Nc1ccccc1NC(=O)c1ccc(CNC(=O)OCc2cccnc2)cc1` + Cc1ccccc1N=Nc1ccc(NC(=O)c2ccnn2C)c(C)c1 the IC50 [1] was 2220 nM, the IC50 [2] was 2410 nM and the IC50 [3] was 2340 nM. It also gave an IC50 [4] of 2460 nM, an IC50 [5] of 2410 nM and a viability, T/C [6] of 91.5%. The viability, T/C [7] was 102%, the viability, T/C [8] was 91.5% and the viability, T/C [9] was 72.9%. The viability, T/C [26] was 40.1%, the viability, T/C [27] was 23.3% and the viability, T/C [10] was 95.7%. It also gave a viability, T/C [11] of 102%, a viability, T/C [12] of 94.8% and a viability, T/C [13] of 72.5%. It also gave a viability, T/C [28] of 43.7%, a viability, T/C [29] of 23.1% and a viability, T/C [14] of 91.8%. The viability, T/C [15] was 95.9%, the viability, T/C [16] was 90% and the viability, T/C [17] was 73.4%. For the same compound, the viability, T/C [30] was 41.8%, the viability, T/C [31] was 25.1% and the viability, T/C [18] was 98.6%. It also gave a viability, T/C [19] of 88.7%, a viability, T/C [20] of 84.5% and a viability, T/C [21] of 68.8%. It also gave a viability, T/C [32] of 43.9%, a viability, T/C [33] of 23.5% and a viability, T/C [22] of 91.6%. For the same compound, the viability, T/C [23] was 87.3%, the viability, T/C [24] was 85.5% and the viability, T/C [25] was 72.8%. It also gave a viability, T/C [34] of 42.9% and a viability, T/C [35] of 26.1%.
